We go through 2 molecules from article PMC8270301, “Novel Facet of an Old Dietary Molecule? Direct Influence of Caffeine on Glucose and Biogenic Amine Handling by Human Adipocytes” (Molecules, 2021).

Each structure is given as a SMILES string.

Assay [1] deals with T1, primary amine oxidase (SSAO/PrAO/VAP-1) (Homo sapiens, UniProt Q16853).
T1 construct: gene AOC3; native enzyme in homogenates of human subcutaneous adipose tissue
T1 sequence (Q16853 1-763): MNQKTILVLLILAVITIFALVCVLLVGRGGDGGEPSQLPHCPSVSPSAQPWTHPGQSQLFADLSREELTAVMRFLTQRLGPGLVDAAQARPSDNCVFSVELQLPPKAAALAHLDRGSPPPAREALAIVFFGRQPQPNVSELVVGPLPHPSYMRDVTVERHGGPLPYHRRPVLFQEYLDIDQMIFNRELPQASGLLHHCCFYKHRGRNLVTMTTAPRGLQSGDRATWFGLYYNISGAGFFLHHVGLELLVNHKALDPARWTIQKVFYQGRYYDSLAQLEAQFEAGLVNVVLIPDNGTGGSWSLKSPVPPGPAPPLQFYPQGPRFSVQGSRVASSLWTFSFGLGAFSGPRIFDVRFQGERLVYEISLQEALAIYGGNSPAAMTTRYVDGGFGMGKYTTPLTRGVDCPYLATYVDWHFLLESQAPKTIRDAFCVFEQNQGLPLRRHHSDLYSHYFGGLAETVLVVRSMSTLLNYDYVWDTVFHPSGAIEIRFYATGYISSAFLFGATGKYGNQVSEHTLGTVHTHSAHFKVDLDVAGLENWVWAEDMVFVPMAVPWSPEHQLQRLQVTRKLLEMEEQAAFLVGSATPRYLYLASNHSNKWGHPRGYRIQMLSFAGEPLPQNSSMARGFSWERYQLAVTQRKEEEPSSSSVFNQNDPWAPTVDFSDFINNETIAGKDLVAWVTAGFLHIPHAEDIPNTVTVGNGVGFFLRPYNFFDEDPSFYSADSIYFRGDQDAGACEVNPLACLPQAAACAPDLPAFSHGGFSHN
As to the kind of experiment: Amplex Red hydrogen peroxide assay of benzylamine oxidation in tissue homogenate, Lineweaver-Burk analysis. Type of assay: biochemical.

The target in assay [2] is T1, primary amine oxidase (SSAO/PrAO/VAP-1). As to the kind of experiment: Amplex Red hydrogen peroxide release in tissue homogenate, Lineweaver-Burk plot. In kind it is cell-based.

The term Ki denotes the dissociation constant of the complex between target and ligand, obtained from inhibition or displacement. Read a high Ki as lower affinity. As to `Cn1c(=O)c2c(ncn2C)n(C)c1=O` [caffeine, 1,3,7-trimethylxanthine], in assay [1], affinity was put at a Ki of 880 µM.

`NCc1ccccc1` [benzylamine]: in assay [2], the “Amplex Red hydrogen peroxide release in tissue homogenate, Lineweaver-Burk plot” value was “Lineweaver–Burk plot of the inhibition of benzylamine oxidation by increasing doses of caffeine”.
